Reference: ChEMBL document CHEMBL2429768, “Eco-friendly synthesis and antimicrobial activities of substituted-5-(1H-indol-3-yl)methylene)-2,2-dimethyl-1,3-dioxane-4,6-dione derivatives” (2013)
In brackets after ≈: the same amount, converted by molar mass.

Experiments:
Format in all cases: functional
[1] = tested on: Aspergillus niger; assay: Antifungal activity against Aspergillus niger at 50 ug/ml after 72 hrs by agar well diffusion method; details: read-out: DIZ
[2] = tested on: Fusarium oxysporum; assay: Antifungal activity against Fusarium oxysporum at 500 ug/ml after 72 hrs by agar well diffusion method; details: read-out: DIZ
[3] = tested on: Fusarium oxysporum; assay: Antifungal activity against Fusarium oxysporum at 300 ug/ml after 72 hrs by agar well diffusion method; details: read-out: DIZ
[4] = tested on: Fusarium oxysporum; assay: Antifungal activity against Fusarium oxysporum at 200 ug/ml after 72 hrs by agar well diffusion method; details: read-out: DIZ
[5] = tested on: Fusarium oxysporum; assay: Antifungal activity against Fusarium oxysporum at 100 ug/ml after 72 hrs by agar well diffusion method; details: read-out: DIZ
[6] = tested on: Fusarium oxysporum; assay: Antifungal activity against Fusarium oxysporum at 50 ug/ml after 72 hrs by agar well diffusion method; details: read-out: DIZ
[7] = tested on: Rhizoctonia solani; assay: Antifungal activity against Rhizoctonia solani at 500 ug/ml after 72 hrs by agar well diffusion method; details: read-out: DIZ
[8] = tested on: Rhizoctonia solani; assay: Antifungal activity against Rhizoctonia solani at 300 ug/ml after 72 hrs by agar well diffusion method; details: read-out: DIZ
[9] = tested on: Rhizoctonia solani; assay: Antifungal activity against Rhizoctonia solani at 200 ug/ml after 72 hrs by agar well diffusion method; details: read-out: DIZ
[10] = tested on: Rhizoctonia solani; assay: Antifungal activity against Rhizoctonia solani at 100 ug/ml after 72 hrs by agar well diffusion method; details: read-out: DIZ
[11] = tested on: Rhizoctonia solani; assay: Antifungal activity against Rhizoctonia solani at 50 ug/ml after 72 hrs by agar well diffusion method; details: read-out: DIZ
[12] = tested on: Bacillus subtilis; assay: Antibacterial activity against Bacillus subtilis at 500 ug/ml after 24 hrs by agar well diffusion method; details: read-out: DIZ
[13] = tested on: Bacillus subtilis; assay: Antibacterial activity against Bacillus subtilis at 300 ug/ml after 24 hrs by agar well diffusion method; details: read-out: DIZ
[14] = tested on: Bacillus subtilis; assay: Antibacterial activity against Bacillus subtilis at 200 ug/ml after 24 hrs by agar well diffusion method; details: read-out: DIZ
[15] = tested on: Bacillus subtilis; assay: Antibacterial activity against Bacillus subtilis at 100 ug/ml after 24 hrs by agar well diffusion method; details: read-out: DIZ
[16] = tested on: Bacillus subtilis; assay: Antibacterial activity against Bacillus subtilis at 50 ug/ml after 24 hrs by agar well diffusion method; details: read-out: DIZ
[17] = tested on: Staphylococcus aureus; assay: Antibacterial activity against Staphylococcus aureus ATCC 6538 at 500 ug/ml after 24 hrs by agar well diffusion method; details: ATCC 6538, 24 h, read-out: DIZ
[18] = tested on: Staphylococcus aureus; assay: Antibacterial activity against Staphylococcus aureus ATCC 6538 at 300 ug/ml after 24 hrs by agar well diffusion method; details: ATCC 6538, 24 h, read-out: DIZ
[19] = tested on: Staphylococcus aureus; assay: Antibacterial activity against Staphylococcus aureus ATCC 6538 at 200 ug/ml after 24 hrs by agar well diffusion method; details: ATCC 6538, 24 h, read-out: DIZ
[20] = tested on: Staphylococcus aureus; assay: Antibacterial activity against Staphylococcus aureus ATCC 6538 at 100 ug/ml after 24 hrs by agar well diffusion method; details: ATCC 6538, 24 h, read-out: DIZ
[21] = tested on: Escherichia coli; assay: Antibacterial activity against Escherichia coli ATCC 8739 at 300 ug/ml after 24 hrs by agar well diffusion method; details: ATCC 8739, 24 h, read-out: DIZ
[22] = tested on: Escherichia coli; assay: Antibacterial activity against Escherichia coli ATCC 8739 at 200 ug/ml after 24 hrs by agar well diffusion method; details: ATCC 8739, 24 h, read-out: DIZ
[23] = tested on: Escherichia coli; assay: Antibacterial activity against Escherichia coli ATCC 8739 at 100 ug/ml after 24 hrs by agar well diffusion method; details: ATCC 8739, 24 h, read-out: DIZ
[24] = tested on: Escherichia coli; assay: Antibacterial activity against Escherichia coli ATCC 8739 at 50 ug/ml after 24 hrs by agar well diffusion method; details: ATCC 8739, 24 h, read-out: DIZ
[25] = tested on: Klebsiella pneumoniae; assay: Antibacterial activity against Klebsiella pneumoniae at 500 ug/ml after 24 hrs by agar well diffusion method; details: read-out: DIZ
[26] = tested on: Klebsiella pneumoniae; assay: Antibacterial activity against Klebsiella pneumoniae at 300 ug/ml after 24 hrs by agar well diffusion method; details: read-out: DIZ
[27] = tested on: Klebsiella pneumoniae; assay: Antibacterial activity against Klebsiella pneumoniae at 200 ug/ml after 24 hrs by agar well diffusion method; details: read-out: DIZ
[28] = tested on: Klebsiella pneumoniae; assay: Antibacterial activity against Klebsiella pneumoniae at 50 ug/ml after 24 hrs by agar well diffusion method; details: read-out: DIZ
[29] = tested on: Escherichia coli; assay: Antibacterial activity against Escherichia coli ATCC 8739 at 500 ug/ml after 24 hrs by agar well diffusion method; details: ATCC 8739, 24 h, read-out: DIZ
[30] = tested on: Klebsiella pneumoniae; assay: Antibacterial activity against Klebsiella pneumoniae at 100 ug/ml after 24 hrs by agar well diffusion method; details: read-out: DIZ
[31] = tested on: Staphylococcus aureus; assay: Antibacterial activity against Staphylococcus aureus ATCC 6538 at 50 ug/ml after 24 hrs by agar well diffusion method; details: ATCC 6538, 24 h, read-out: DIZ
[32] = tested on: Aspergillus flavus; assay: Antifungal activity against Aspergillus flavus at 50 ug/ml after 72 hrs by agar well diffusion method; details: read-out: DIZ
[33] = tested on: Aspergillus flavus; assay: Antifungal activity against Aspergillus flavus at 100 ug/ml after 72 hrs by agar well diffusion method; details: read-out: DIZ
[34] = tested on: Aspergillus flavus; assay: Antifungal activity against Aspergillus flavus after 72 hrs by agar well diffusion method
[35] = tested on: Aspergillus niger; assay: Antifungal activity against Aspergillus niger after 72 hrs by agar well diffusion method
[36] = tested on: Fusarium oxysporum; assay: Antifungal activity against Fusarium oxysporum after 72 hrs by agar well diffusion method
[37] = tested on: Rhizoctonia solani; assay: Antifungal activity against Rhizoctonia solani after 72 hrs by agar well diffusion method
[38] = tested on: Bacillus subtilis; assay: Antibacterial activity against Bacillus subtilis after 24 hrs by agar well diffusion method
[39] = tested on: Staphylococcus aureus; assay: Antibacterial activity against Staphylococcus aureus ATCC 6538 after 24 hrs by agar well diffusion method; details: ATCC 6538, 24 h
[40] = tested on: Escherichia coli; assay: Antibacterial activity against Escherichia coli ATCC 8739 after 24 hrs by agar well diffusion method; details: ATCC 8739, 24 h
[41] = tested on: Klebsiella pneumoniae; assay: Antibacterial activity against Klebsiella pneumoniae after 24 hrs by agar well diffusion method
[42] = tested on: Aspergillus flavus; assay: Antifungal activity against Aspergillus flavus at 500 ug/ml after 72 hrs by agar well diffusion method; details: read-out: DIZ
[43] = tested on: Aspergillus flavus; assay: Antifungal activity against Aspergillus flavus at 300 ug/ml after 72 hrs by agar well diffusion method; details: read-out: DIZ
[44] = tested on: Aspergillus flavus; assay: Antifungal activity against Aspergillus flavus at 200 ug/ml after 72 hrs by agar well diffusion method; details: read-out: DIZ
[45] = tested on: Aspergillus niger; assay: Antifungal activity against Aspergillus niger at 500 ug/ml after 72 hrs by agar well diffusion method; details: read-out: DIZ
[46] = tested on: Aspergillus niger; assay: Antifungal activity against Aspergillus niger at 300 ug/ml after 72 hrs by agar well diffusion method; details: read-out: DIZ
[47] = tested on: Aspergillus niger; assay: Antifungal activity against Aspergillus niger at 200 ug/ml after 72 hrs by agar well diffusion method; details: read-out: DIZ
[48] = tested on: Aspergillus niger; assay: Antifungal activity against Aspergillus niger at 100 ug/ml after 72 hrs by agar well diffusion method; details: read-out: DIZ

CCn1cc(C=C2C(=O)OC(C)(C)OC2=O)c2cc(OC)ccc21
zone of inhibition at 50 µg/mL [1]: 6 mm | zone of inhibition at 500 µg/mL [2]: 29 mm | zone of inhibition at 300 µg/mL [3]: 21 mm | zone of inhibition at 200 µg/mL [4]: 16 mm | zone of inhibition at 100 µg/mL [5]: 12 mm | zone of inhibition at 50 µg/mL [6]: 7 mm | zone of inhibition at 500 µg/mL [7]: 29 mm | zone of inhibition at 300 µg/mL [8]: 21 mm | zone of inhibition at 200 µg/mL [9]: 16 mm | zone of inhibition at 100 µg/mL [10]: 12 mm | zone of inhibition at 50 µg/mL [11]: 7 mm | zone of inhibition at 500 µg/mL [12]: 21 mm | zone of inhibition at 300 µg/mL [13]: 13 mm | zone of inhibition at 200 µg/mL [14]: 10 mm | zone of inhibition at 100 µg/mL [15]: 8 mm | zone of inhibition at 50 µg/mL [16]: 4 mm | zone of inhibition at 500 µg/mL [17]: 22 mm | zone of inhibition at 300 µg/mL [18]: 14 mm | zone of inhibition at 200 µg/mL [19]: 11 mm | zone of inhibition at 100 µg/mL [20]: 9 mm | zone of inhibition at 300 µg/mL [21]: 16 mm | zone of inhibition at 200 µg/mL [22]: 13 mm | zone of inhibition at 100 µg/mL [23]: 10 mm | zone of inhibition at 50 µg/mL [24]: 6 mm | zone of inhibition at 500 µg/mL [25]: 31 mm | zone of inhibition at 300 µg/mL [26]: 20 mm | zone of inhibition at 200 µg/mL [27]: 15 mm | zone of inhibition at 50 µg/mL [28]: 8 mm | zone of inhibition at 500 µg/mL [29]: 26 mm | zone of inhibition at 100 µg/mL [30]: 13 mm | zone of inhibition at 50 µg/mL [31]: 4 mm | zone of inhibition at 50 µg/mL [32]: 4 mm | zone of inhibition at 100 µg/mL [33]: 9 mm | MIC [34]: 40 µg/mL (≈ 121 µM) | MIC [35]: 40 µg/mL (≈ 121 µM) | MIC [36]: 35 µg/mL (≈ 106 µM) | MIC [37]: 35 µg/mL (≈ 106 µM) | MIC [38]: 30 µg/mL (≈ 91.1 µM) | MIC [39]: 25 µg/mL (≈ 75.9 µM) | MIC [40]: 15 µg/mL (≈ 45.5 µM) | MIC [41]: 15 µg/mL (≈ 45.5 µM) | zone of inhibition at 500 µg/mL [42]: 23 mm | zone of inhibition at 300 µg/mL [43]: 15 mm | zone of inhibition at 200 µg/mL [44]: 12 mm | zone of inhibition at 500 µg/mL [45]: 25 mm | zone of inhibition at 300 µg/mL [46]: 18 mm | zone of inhibition at 200 µg/mL [47]: 14 mm | zone of inhibition at 100 µg/mL [48]: 10 mm

CCn1cc(C=C2C(=O)OC(C)(C)OC2=O)c2ccccc21
zone of inhibition at 50 µg/mL [1]: 6 mm | zone of inhibition at 500 µg/mL [2]: 29 mm | zone of inhibition at 300 µg/mL [3]: 21 mm | zone of inhibition at 200 µg/mL [4]: 16 mm | zone of inhibition at 100 µg/mL [5]: 12 mm | zone of inhibition at 50 µg/mL [6]: 7 mm | zone of inhibition at 500 µg/mL [7]: 29 mm | zone of inhibition at 300 µg/mL [8]: 21 mm | zone of inhibition at 200 µg/mL [9]: 16 mm | zone of inhibition at 100 µg/mL [10]: 12 mm | zone of inhibition at 50 µg/mL [11]: 7 mm | zone of inhibition at 500 µg/mL [12]: 22 mm | zone of inhibition at 300 µg/mL [13]: 14 mm | zone of inhibition at 200 µg/mL [14]: 11 mm | zone of inhibition at 100 µg/mL [15]: 9 mm | zone of inhibition at 50 µg/mL [16]: 4 mm | zone of inhibition at 500 µg/mL [17]: 25 mm | zone of inhibition at 300 µg/mL [18]: 18 mm | zone of inhibition at 200 µg/mL [19]: 14 mm | zone of inhibition at 100 µg/mL [20]: 10 mm | zone of inhibition at 300 µg/mL [21]: 20 mm | zone of inhibition at 200 µg/mL [22]: 16 mm | zone of inhibition at 100 µg/mL [23]: 13 mm | zone of inhibition at 50 µg/mL [24]: 8 mm | zone of inhibition at 500 µg/mL [25]: 31 mm | zone of inhibition at 300 µg/mL [26]: 23 mm | zone of inhibition at 200 µg/mL [27]: 18 mm | zone of inhibition at 50 µg/mL [28]: 9 mm | zone of inhibition at 500 µg/mL [29]: 30 mm | zone of inhibition at 100 µg/mL [30]: 14 mm | zone of inhibition at 50 µg/mL [31]: 6 mm | zone of inhibition at 50 µg/mL [32]: 4 mm | zone of inhibition at 100 µg/mL [33]: 9 mm | MIC [34]: 40 µg/mL (≈ 134 µM) | MIC [35]: 40 µg/mL (≈ 134 µM) | MIC [36]: 35 µg/mL (≈ 117 µM) | MIC [37]: 35 µg/mL (≈ 117 µM) | MIC [38]: 30 µg/mL (≈ 100 µM) | MIC [39]: 25 µg/mL (≈ 83.5 µM) | MIC [40]: 15 µg/mL (≈ 50.1 µM) | MIC [41]: 15 µg/mL (≈ 50.1 µM) | zone of inhibition at 500 µg/mL [42]: 23 mm | zone of inhibition at 300 µg/mL [43]: 15 mm | zone of inhibition at 200 µg/mL [44]: 12 mm | zone of inhibition at 500 µg/mL [45]: 25 mm | zone of inhibition at 300 µg/mL [46]: 18 mm | zone of inhibition at 200 µg/mL [47]: 14 mm | zone of inhibition at 100 µg/mL [48]: 10 mm
